According to patent publication US10577378B2, “EIF4A-inhibiting compounds and methods related thereto” (eFFECTOR Therapeutics, Inc., priority 2015, dated 2020):

System: MDA-MB-231 human breast cancer cells
Assay: Cell proliferation assay (CellTiter-Glo, 72 hours treatment)
Type: cell-based
Conditions: Homo sapiens; MDA-MB-231 cells, 72 hours at 37° C., CellTiter-Glo; read-out: MDA-MB-231 cell proliferation assay (IC50)
Summary of the method: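 IC50 categories: under 100 nM +++, 100–1000 nM ++, above 1000 nM +, derived by sigmoidal curve fitting of CellTiter-Glo luminescence. Cells plated at 2,500 per well, dosed the following day and exposed 72 h at 37 °C versus DMSO control.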

SMILES | IC50
COc1nc(Cl)cc2c1[C@]1(O)[C@H](O)[C@H](CN3CCC34CC4(F)F)[C@@H](c3ccccc3)[C@]1(c1ccc(Br)cc1)O2 (mixture of isomers) [220F, Rac-(5aR,6S,7S,8R,8aS)-5a-(4-bromophenyl)-3-chloro-7-((1,1-difluoro-4-azaspiro[2.3]hexan-4-yl)methyl)-1-methoxy-6-phenyl-5a,6,7,8-tetrahydro-8aH-cyclopenta[4,5]furo[3,2-c]pyridine-8,8a-diol] | < 100 nM
COc1nccc2c1[C@]1(O)[C@H](O)[C@H](CN(C)C)[C@@H](c3ccccc3)[C@]1(c1ccc(C(F)(F)F)cc1)O2 (racemic) [149F, Rac-(5aR,6S,7S,8R,8aS)-7-((dimethylamino)methyl)-1-methoxy-6-phenyl-5a-(4-(trifluoromethyl)phenyl)-5a,6,7,8-tetrahydro-8aH-cyclopenta[4,5]furo[3,2-c]pyridine-8,8a-diol] | > 1000 nM
COc1cncc2c1[C@]1(O)[C@H](O)[C@H](S(=O)(=O)c3ccccc3)[C@@H](c3ccccc3)[C@]1(c1ccc(C#N)cc1)O2 (racemic) [118F, Rac-4-((4bS,5S,6R,7S,7aR)-4b,5-dihydroxy-4-methoxy-7-phenyl-6-(phenylsulfonyl)-4b,5,6,7-tetrahydro-7aH-cyclopenta[4,5]furo[2,3-c]pyridin-7a-yl)benzonitrile] | 100 to 1000 nM
CN(C)C(=O)[C@H]1[C@@H](O)[C@@]2(O)c3nn(C)c(C#N)c3O[C@@]2(c2ccc(C#N)cc2)[C@@H]1c1ccccc1 (racemic) [82F, Rac-(4aR,5S,6R,7R,7aS)-3-cyano-4a-(4-cyanophenyl)-7,7a-dihydroxy-N,N,2-trimethyl-5-phenyl-2,4a,5,6,7,7a-hexahydrocyclopenta[4,5]furo[3,2-c]pyrazole-6-carboxamide] | > 1000 nM
CCN(C)C[C@H]1[C@@H](O)[C@@]2(O)c3c(OC)cncc3O[C@@]2(c2ccc(C#N)cc2)[C@@H]1c1ccccc1 (racemic) [74F, Rac-4-((4bS,5R,6S,7S,7aR)-6-((ethyl(methyl)amino)methyl)-4b,5-dihydroxy-4-methoxy-7-phenyl-4b,5,6,7-tetrahydro-7aH-cyclopenta[4,5]furo[2,3-c]pyridin-7a-yl)benzonitrile] | < 100 nM
Cc1ccc(S(=O)(=O)NN=C2C[C@@H](c3ccccc3)[C@]3(c4ccc(Br)cc4)Oc4cc(Cl)cnc4[C@]23O)cc1 (racemic) [132F, Rac-N′-((5aR,6S,8aS)-5a-(4-bromophenyl)-3-chloro-8a-hydroxy-6-phenyl-5a,6,7,8a-tetrahydro-8H-cyclopenta[4,5]furo[3,2-b]pyridin-8-ylidene)-4-methylbenzenesulfonohydrazide] | > 1000 nM
COc1nc(C#N)cc2c1[C@]1(O)[C@@H](CN(C)C)[C@H](CO)[C@@H](c3ccccc3)[C@]1(c1ccc(C#N)cc1)O2 (racemic) [210F, Rac-(5aR,6S,7R,8R,8aR)-5a-(4-cyanophenyl)-8-((dimethylamino)methyl)-8a-hydroxy-7-(hydroxymethyl)-1-methoxy-6-phenyl-5a,7,8,8a-tetrahydro-6H-cyclopenta[4,5]furo[3,2-c]pyridine-3-carbonitrile] | < 100 nM
COc1cncc2c1[C@]1(O)[C@H](O)[C@H](CN3CCN(C)CC3)[C@@H](c3ccccc3)[C@]1(c1ccc(C#N)cc1)O2 (racemic) [68F, Rac-4-((4bS,5R,6S,7S,7aR)-4b,5-dihydroxy-4-methoxy-6-((4-methylpiperazin-1-yl)methyl)-7-phenyl-4b,5,6,7-tetrahydro-7aH-cyclopenta[4,5]furo[2,3-c]pyridin-7a-yl)benzonitrile] | 100 to 1000 nM
COC(=O)[C@H]1[C@@H](O)[C@@]2(F)c3ncc(Cl)cc3O[C@@]2(c2ccc(Br)cc2)[C@@H]1c1ccccc1 (racemic) [43F, Rac-methyl (5aR,6S,7R,8R,8aS)-5a-(4-bromophenyl)-3-chloro-8a-fluoro-8-hydroxy-6-phenyl-5a,7,8,8a-tetrahydro-6H-cyclopenta[4,5]furo[3,2-b]pyridine-7-carboxylate] | > 1000 nM
COc1cncc2c1[C@]1(O)[C@H](O)[C@H](CN(C)CCF)[C@@H](c3ccccc3)[C@]1(c1ccc(C#N)cc1)O2 (single isomer, unassigned) [248F] | < 100 nM
COc1nc(Cl)cc2c1[C@]1(O)[C@@H](CN(C)C)[C@H](CO)[C@@H](c3ccccc3)[C@]1(c1ccc(Br)cc1)O2 (racemic) [209F, Rac-(5aR,6S,7R,8R,8aR)-5a-(4-bromophenyl)-3-chloro-8-((dimethylamino)methyl)-7-(hydroxymethyl)-1-methoxy-6-phenyl-5a,6,7,8-tetrahydro-8aH-cyclopenta[4,5]furo[3,2-c]pyridin-8a-ol] | < 100 nM
CN(C)C(=O)[C@@H]1[C@@H](c2ccccc2)[C@]2(c3ccc(C#N)cc3)Oc3cc(Cl)cnc3[C@]2(O)[C@H]1C#N (racemic) [51F, Rac-(5aR,6S,7R,8R,8aR)-3-chloro-8-cyano-5a-(4-cyanophenyl)-8a-hydroxy-N,N-dimethyl-6-phenyl-5a,7,8,8a-tetrahydro-6H-cyclopenta[4,5]furo[3,2-b]pyridine-7-carboxamide] | 100 to 1000 nM
COC(=O)[C@@H]1[C@@H](c2ccccc2)[C@]2(c3ccc(Br)cc3)Oc3cc(Cl)cnc3[C@@]23O[C@@H]13 (racemic) [161F, Rac-methyl (1aS,2R,3S,3aR,8bS)-3a-(4-bromophenyl)-6-chloro-3-phenyl-1a,2,3,3a-tetrahydro-oxireno[2″,3″:1′,5′]cyclopenta[1′,2′:4,5]furo[3,2-b]pyridine-2-carboxylate] | > 1000 nM
CS(=O)(=O)[C@H]1[C@@H](O)[C@@]2(O)c3ncc(Cl)cc3O[C@@]2(c2ccc(C#N)cc2)[C@@H]1c1ccccc1 (racemic) [85F, Rac-4-((5aR,6S,7R,8S,8aS)-3-chloro-8,8a-dihydroxy-7-(methylsulfonyl)-6-phenyl-6,7,8,8a-tetrahydro-5aH-cyclopenta[4,5]furo[3,2-b]pyridin-5a-yl)benzonitrile] | > 1000 nM
COc1cncc2c1[C@]1(O)[C@H](O)[C@H](CNC3CC3)[C@@H](c3ccccc3)[C@]1(c1ccc(C#N)cc1)O2 (racemic) [244F, Rac-4-((4bS,5R,6S,7S,7aR)-6-((cyclopropylamino)methyl)-4b,5-dihydroxy-4-methoxy-7-phenyl-4b,5,6,7-tetrahydro-7aH-cyclopenta[4,5]furo[2,3-c]pyridin-7a-yl)benzonitrile] | < 100 nM
COc1cnc2c(c1)O[C@@]1(c3ccc(C#N)cc3)[C@H](c3ccccc3)[C@@H](C(=O)N(C)C)[C@@H](O)[C@@]21O (single isomer, unassigned) [6F] | 100 to 1000 nM
COc1cncc2c1[C@]1(O)[C@H](O)[C@H](CN3CCC(F)(F)C3)[C@@H](c3ccccc3)[C@]1(c1ccc(C#N)cc1)O2 (single isomer, unassigned) [280F] | 100 to 1000 nM
CN(C)C(=O)[C@H]1[C@@H](O)[C@@]2(O)c3c(C#N)cncc3O[C@@]2(c2ccc(C#N)cc2)[C@@H]1c1ccccc1 (racemic) [96F, Rac-(4bS,5R,6R,7S,7aR)-4-cyano-7a-(4-cyanophenyl)-4b,5-dihydroxy-N,N-dimethyl-7-phenyl-4b,6,7,7a-tetrahydro-5H-cyclopenta[4,5]furo[2,3-c]pyridine-6-carboxamide] | > 1000 nM
COc1cncc2c1[C@]1(O)[C@H](O)[C@H](CN3CC4CC(C3)O4)[C@@H](c3ccccc3)[C@]1(c1ccc(C#N)cc1)O2 (single isomer, unassigned) [274F] | 100 to 1000 nM
O[C@]12c3ncc(Cl)cc3O[C@@]1(c1ccc(Br)cc1)[C@H](c1ccccc1)[C@H]1CO[C@H]12 (racemic) [60F, Rac-(2aS,3S,3aR,8bS,8cR)-3a-(4-bromophenyl)-6-chloro-3-phenyl-2a,3,3a,8c-tetrahydrooxeto[3″,2″:4′,5′]cyclopenta[1′,2′:4,5]furo[3,2-b]pyridin-8b(2H)-ol] | > 1000 nM
CN(C)C(=O)[C@H]1[C@@H](O)[C@@]2(O)c3nn(C)cc3O[C@@]2(c2ccc(C#N)cc2)[C@@H]1c1ccccc1 (single isomer, unassigned) [23F] | > 1000 nM
COc1cncc2c1[C@]1(O)[C@@H](CNC3COC3)[C@H](CO)[C@@H](c3ccccc3)[C@]1(c1ccc(C#N)cc1)O2 (racemic) [186F, Rac-4-((4bR,5R,6R,7S,7aR)-4b-hydroxy-6-(hydroxymethyl)-4-methoxy-5-((oxetan-3-ylamino)-methyl)-7-phenyl-4b,5,6,7-tetrahydro-7aH-cyclopenta[4,5]furo[2,3-c]pyridin-7a-yl)-benzonitrile] | < 100 nM
OC[C@H]1C[C@@H](c2ccccc2)[C@]2(c3ccc(Br)cc3)Oc3cc(Cl)cnc3[C@]12O (racemic) [162F, Rac-(5aR,6S,8R,8aR)-5a-(4-bromophenyl)-3-chloro-8-(hydroxymethyl)-6-phenyl-5a,6,7,8-tetrahydro-8aH-cyclopenta[4,5]furo[3,2-b]pyridin-8a-ol] | 100 to 1000 nM
O[C@@H]1[C@H](Sc2ccccn2)[C@@H](c2ccccc2)[C@]2(c3ccc(Br)cc3)Oc3cc(Cl)cnc3[C@]12O (racemic) [160Fa, Rac-(5aR,6S,7R,8S,8aS)-5a-(4-bromophenyl)-3-chloro-6-phenyl-7-(pyridin-2-ylthio)-5a,6,7,8-tetrahydro-8aH-cyclopenta[4,5]furo[3,2-b]pyridine-8,8a-diol] | 100 to 1000 nM
COc1cncc2c1[C@]1(O)[C@H](O)[C@H](CNCc3ccccc3)[C@@H](c3ccccc3)[C@]1(c1ccc(C#N)cc1)O2 (racemic) [77F, Rac-4-((4bS,5R,6S,7S,7aR)-6-((benzylamino)methyl)-4b,5-dihydroxy-4-methoxy-7-phenyl-4b,5,6,7-tetrahydro-7aH-cyclopenta[4,5]furo[2,3-c]pyridin-7a-yl)benzonitrile] | < 100 nM
CN(C)C[C@@H]1[C@@H](O)[C@@]2(O)c3ncc(Cl)cc3O[C@@]2(c2ccc(C(F)F)cc2)[C@@H]1c1ccccc1 (single isomer, unassigned) [108F] | 100 to 1000 nM
